Our source for the IC50 values is US7858621B2 (Amorepacific Corporation, priority 2006, dated 2010).

By IC50 is commonly meant the concentration that gives 50% inhibition.

SMILES strings stand for the structures. Where a name gives a salt, the structure may show the parent alone. Bounds are passed on as bounds.

For this test, the target named is T1, vanilloid receptor (Rattus norvegicus, UniProt O35433).
T1 construct: DRG nerve cells from the primary culture of 2 days were equilibrated; endogenous in cells; host or cells: primary culture of dorsal root ganglion neurons from neonatal SD rats
T1 sequence (O35433 whole entry): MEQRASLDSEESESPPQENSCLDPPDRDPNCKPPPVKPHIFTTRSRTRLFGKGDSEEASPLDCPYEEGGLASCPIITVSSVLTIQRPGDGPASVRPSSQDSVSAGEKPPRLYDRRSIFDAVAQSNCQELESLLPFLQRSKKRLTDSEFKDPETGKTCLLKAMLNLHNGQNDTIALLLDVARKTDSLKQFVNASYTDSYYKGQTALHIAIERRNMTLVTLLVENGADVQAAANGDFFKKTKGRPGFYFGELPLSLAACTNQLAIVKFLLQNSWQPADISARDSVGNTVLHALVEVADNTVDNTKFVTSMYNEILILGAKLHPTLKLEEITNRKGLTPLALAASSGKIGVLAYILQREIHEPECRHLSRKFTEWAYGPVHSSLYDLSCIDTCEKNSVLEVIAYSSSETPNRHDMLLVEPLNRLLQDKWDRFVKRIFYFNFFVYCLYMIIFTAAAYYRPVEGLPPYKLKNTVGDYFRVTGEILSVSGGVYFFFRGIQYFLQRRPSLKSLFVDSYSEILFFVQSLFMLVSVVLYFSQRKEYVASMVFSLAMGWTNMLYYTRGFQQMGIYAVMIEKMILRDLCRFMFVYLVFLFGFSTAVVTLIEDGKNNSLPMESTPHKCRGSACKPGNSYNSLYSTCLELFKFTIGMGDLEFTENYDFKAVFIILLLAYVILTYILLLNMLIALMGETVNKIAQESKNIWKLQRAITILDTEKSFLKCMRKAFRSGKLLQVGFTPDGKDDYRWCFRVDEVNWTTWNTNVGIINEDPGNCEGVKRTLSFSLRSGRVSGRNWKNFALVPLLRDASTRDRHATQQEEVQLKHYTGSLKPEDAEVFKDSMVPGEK
The test can be described thus: 45Ca influx test in cultured neonatal rat DRG neurons, inhibition of capsaicin response. Type of test: cell-based. The conditions noted are these: neonatal rat DRG neurons, capsaicin 0.5 μM, 45Ca influx; read-out: Antagonist Calcium Uptake Test (IC50). The protocol: 1) Separation of Spinal Dorsal Root Ganglia (DRG) in Newborn Rats and Primary Culture Thereof
Neonatal (2-3 day old or younger than 2-3 day old) SD rats were put in ice for 5 minutes to anesthetize and disinfected with 70% ethanol. […] The DRG were incubated sequentially at 37° C. for 30 mins in 200 U/ml collagenase and 2.5 mg/ml trypsin, separately. The ganglia were washed twice with DME/F12 medium supplemented with 10% horse serum, triturated through a fire-polished Pasteur pipette, filtered through Nitex 80 membrane to obtain single cell suspension and the suspension was washed once more. This was subjected to centrifugation, then resuspended in cell culture medium at certain level of cell density. As the cell culture medium, DME/F12 medium supplemented with 10% horse serum was diluted with identical medium conditioned by C6 glioma cells 2 days on a confluent monolayer (1:1), and NGF (Nerve Growth Factor) was added to adjust 200 ng/ml as final concentration. After the cells were grown 2 days in medium where cytosine arabinoside (Ara-C, 100 μM) was added to kill dividing nonneuronal cells, medium was changed to one without Ara-C. The resuspended cells were plated at a density of 1500-2000 neurons/well onto Terasaki plates previously coated with 10 μg/ml poly-D-ornithine.
2) ^45Ca Influx Experiments
DRG nerve cells from the primary culture of 2 days were equilibrated by washing 4 times with HEPES (10 mM, pH 7.4)-buffered Ca^2+, Mg^2+-free HBSS (H-HBSS). The solution in each well was removed from the individual well. Medium containing the test compound plus capsaicin (final concentration 0.5 μM) and ^45Ca (final concentration 10 μCi/ml) in H-HBSS was added to each well and incubated at room temperature for 10 mins. Terasaki plates were washed five times with H-HBSS and dried at room temperature. To each well, 0.3% SDS (10 μl) was added to elute ^45Ca. After the addition of scintillation cocktail of into each well, the amount of ^45Ca influx into neuron was measured by counting radioactivity.
With `CC(C)c1nc(C(F)(F)F)ccc1/C=C/C(=O)N[C@H](C)c1cc(F)c(NS(C)(=O)=O)c(F)c1` [Example 242, (R)—N-[1-(3,5-Difluoro-4-methanesulfonylamino-phenyl)-ethyl]-3-(2-isopropyl-6-trifluoromethyl-pyridin-3-yl)-acrylamide], the IC50 was found to be 25 nM.

Take `C#Cc1cc(CNC(=O)/C=C/c2ccc(C(F)(F)F)nc2-c2cccnc2)cc(F)c1NS(C)(=O)=O` [Example 126, N-(3-Ethynyl-5-fluoro-4-methanesulfonylamino-benzyl)-3-(2-pyridin-3-yl-6-trifluoromethyl-pyridin-3-yl)-acrylamide]: the IC50 was determined as 4900 nM.

For the compound `CCCCCc1nc(C(F)(F)F)ccc1/C=C/C(=O)N[C@H](C)c1ccc(NS(C)(=O)=O)c(F)c1` [Example 215, (R)—N-[1-(3-Fluoro-4-methanesulfonylamino-phenyl)-ethyl]-3-(2-pentyl-6-trifluoromethyl)-pyridin-3-yl-acrylamide], the IC50 was 54 nM.

With `C#Cc1cc(CNC(=O)/C=C/c2ccc(C(F)(F)F)nc2CC(C)C)cc(F)c1NS(C)(=O)=O` [Example 148, N-(3-Ethynyl-5-fluoro-4-methanesulfonylamino-benzyl)-3-(2-isobutyl-6-trifluoromethyl-pyridin-3-yl)-acrylamide], the IC50 came to 51 nM.

With `CCCSc1nc(C(F)(F)F)ccc1/C=C/C(=O)NCc1ccc(NS(C)(=O)=O)c(C)c1` [Example 186, N-(4-Methanesulfonylamino-3-methyl-benzyl)-3-(2-propylthio-6-trifluoromethyl-pyridin-3-yl)-acrylamide], the IC50 is 510 nM.

As for `CS(=O)(=O)Nc1ccc(CNC(=O)/C=C/c2ccc(N3CCCCC3)nc2)cc1F` [Example 19, N-(3-Fluoro-4-methanesulfonylamino-benzyl)-3-(6-piperid-1-yl-pyridinyl-3-yl)-acrylamide], the IC50 was greater than 10000 nM.

Take `C#Cc1cc(CNC(=O)/C=C/c2ccc(C(F)(F)F)nc2N2CCCC(C(=O)OCC)C2)cc(F)c1NS(C)(=O)=O` (centres unmarked) [Example 114, N-(3-Ethynyl-5-fluoro-4-methansulfonylamino-benzyl)-3-[2-(3-ethoxycarbonyl-piperid-1-yl)-6-trifluoromethyl-pyridin-3-yl]-acrylamide]: the IC50 came out at 430 nM.

In the case of `C#Cc1cc(CNC(=O)/C=C/c2ccc(C(F)(F)F)nc2OC(C)CC)cc(F)c1NS(C)(=O)=O` (centres unmarked) [Example 77, 3-(2-sec-Butoxy-6-trifluoromethyl-pyridin-3-yl)-N-(3-ethynyl-5-fluoro-4-methanesulfonylamino-benzyl)-acrylamide], the IC50 is 340 nM.

Turning to `CS(=O)(=O)Nc1ccc(CNC(=O)/C=C/c2ccc(C(F)(F)F)nc2OCC(F)(F)F)cc1F` [Example 87, N-(3-Fluoro-4-methanesulfonylamino-benzyl)-3-[2-(2,2,2-trifluoro-ethoxy)-6-trifluoromethyl-pyridin-3-yl]-acrylamide], the IC50 came out at 2200 nM.

Regarding `CCCNc1nc(C(F)(F)F)ccc1/C=C/C(=O)NCc1cc(F)c(NS(C)(=O)=O)cc1F` [Example 248, N-(2,5-Difluoro-4-methanesulfonylamino-benzyl)-3-(2-propylamino-6-trifluoromethyl-pyridin-3-yl)-acrylamide], the IC50 was determined as 120 nM.

Regarding `CS(=O)(=O)Nc1ccc(CNC(=O)/C=C/c2ccc(C(F)(F)F)nc2OCc2ccccc2)cc1F` [Example 112, 3-(2-Benzyloxy-6-trifluoromethyl-pyridin-3-yl)-N-(3-fluoro-4-methanesulfonylamino-benzyl)-acrylamide], the IC50 amounted to 1400 nM.

As to `C[C@@H](NC(=O)/C=C/c1ccc(C(F)(F)F)nc1N1CCCCC1)c1ccc(NS(C)(=O)=O)c(F)c1` [Example 183, (R)—N-[1-(3-Fluoro-4-methanesulfonylamino-phenyl)-ethyl]-3-(2-piperid-1-yl-6-trifluoromethyl-pyridin-3-yl)-acrylamide], the IC50 turned out to be 220 nM.

As to `CCOC(=O)C1CCN(c2nc(C(F)(F)F)ccc2/C=C/C(=O)NCc2ccc(NS(C)(=O)=O)c(F)c2)CC1` [Example 95, N-(3-Fluoro-4-methanesulfonylamino-benzyl)-3-[2-(4-ethoxycarbonyl-piperid-1-yl)-6-trifluoromethyl-pyridin-3-yl]-acrylamide], the IC50 came to 550 nM.

On to `C#Cc1cc(CNC(=O)/C=C/c2ccc(C(F)(F)F)nc2NC2CCCC2)cc(F)c1NS(C)(=O)=O` [Example 73, 3-(2-Cyclopentylamino-6-trifluoromethyl-pyridin-3-yl)-N-(3-ethynyl-5-fluoro-4-methanesulfonylamino-benzyl)-acrylamide], for which the IC50 was 150 nM.

`C#Cc1cc(CNC(=O)/C=C/c2ccc(C(C)(C)C)nc2Cl)cc(F)c1NS(C)(=O)=O` [Example 51, 3-(6-tert-Butyl-2-chloro-pyridin-3-yl)-N-(3-ethynyl-5-fluoro-4-methanesulfonylamino-benzyl)-acrylamide]: the IC50 is 140 nM.

For `C#Cc1cc(CNC(=O)/C=C/c2ccc(C(F)(F)F)nc2SCCC)cc(F)c1NS(C)(=O)=O` [Example 185, N-(3-Ethynyl-5-fluoro-4-methanesulfonylamino-benzyl)-3-(2-propylthio-6-trifluoromethyl-pyridin-3-yl)-acrylamide], the IC50 is 280 nM.

For the compound `COC1CCN(c2nc(C(F)(F)F)ccc2C=CC(=O)NCc2ccc(NS(C)(=O)=O)c(F)c2)C1` (centres unmarked) [Example 90, N-(3-Fluoro-4-methanesulfonylamino-benzyl)-3-[2-(3-methoxy-pyrrolidin-1-yl)-6-trifluoromethyl-pyridin-3-yl]-acrylamide], the IC50 is 410 nM.

Regarding `CCNc1nc(C(F)(F)F)ccc1/C=C/C(=O)NCc1ccc(NS(C)(=O)=O)c(F)c1` [Example 256, 3-(2-Ethylamino-6-trifluoromethyl-pyridin-3-yl)-N-(3-fluoro-4-methanesulfonylamino-benzyl)-acrylamide], the IC50 was 68 nM.

With `CC(C)Cc1nc(C(F)(F)F)ccc1/C=C/C(=O)NCc1ccc(NS(C)(=O)=O)c(F)c1` [Example 147, N-(3-Fluoro-4-methanesulfonylamino-benzyl)-3-(2-isobutyl-6-trifluoromethyl-pyridin-3-yl)-acrylamide], the IC50 came out at 220 nM.

In the case of `CCCc1nc(C(F)(F)F)ccc1/C=C/C(=O)NCc1ccc(NS(C)(=O)=O)cc1Cl` [Example 251, N-(2-Chloro-4-methanesulfonylamino-benzyl)-3-(2-propyl-6-trifluoromethyl-pyridin-3-yl)-acrylamide], the IC50 came out at 700 nM.

For `CCC(C)Cc1nc(C(F)(F)F)ccc1/C=C/C(=O)NCc1ccc(NS(C)(=O)=O)c(F)c1` (centres unmarked) [Example 151, N-(3-Fluoro-4-methanesulfonylamino-benzyl)-3-[2-(2-methyl-butyl)-6-trifluoromethyl-pyridin-3-yl]-acrylamide], the IC50 was 150 nM.

Turning to `CCOC(=O)C1CCCN(c2nc(C(F)(F)F)ccc2/C=C/C(=O)NCc2cc(F)c(NS(C)(=O)=O)c(C#N)c2)C1` (centres unmarked) [Example 115, N-(3-Cyano-5-fluoro-4-methansulfonylamino-benzyl)-3-[2-(3-ethoxycarbonyl-piperid-1-yl)-6-trifluoromethyl-pyridin-3-yl]-acrylamide], the IC50 came to 470 nM.

On to `C#Cc1cc(CNC(=O)/C=C/c2ccc(C(F)(F)F)nc2N2CCNCC2)cc(F)c1NS(C)(=O)=O` [Example 116, N-(3-Ethynyl-5-fluoro-4-methanesulfonylamino-benzyl)-3-(2-piperaz-1-yl-6-trifluoromethyl-pyridin-3-yl)-acrylamide, HCl salt], for which the IC50 was determined as 4500 nM.
